Results reported in patent US20070112000A1, “Chemical compounds” (AstraZeneca R&D Alderley, priority 2003, published 2007).

Biological target: T1, human 11βHSD1 enzyme (Homo sapiens, UniProt P28845)
T1 construct: stably transfected with a construct containing fill-length human 11βHSD1 enzyme (in pCMVHyg); expressed in transfected cells; host or cells: HeLa cells (human cervical carcinoma) stably carrying the GRE4-β-galactosidase reporter and 11βHSD1 in pCMVHyg
Experiment: HeLa GRE4-βGal/11βHSD1 cell reporter assay (cortisone to cortisol conversion, β-galactosidase readout)
Assay type: cell-based
Details: HeLa GRE4-βGal/11βHSD1 cells, cortisone 1 μM, overnight incubation
From the text: HeLa cells (human cervical carcinoma derived cells) were stably transfected with a construct containing four copies of the glucocorticoid response element (GRE) linked to a beta-galactosidase reporter gene (3 kb lac Z gene derived from pSV-B-galactosidase). These cells were then further stably transfected with a construct containing fill-length human 11βHSD1 enzyme (in pCMVHyg) to create GRE4-βGal/11βHSD1 cells. The principal of the assay is as follows. Cortisone is freely taken up by the cells and is converted to cortisol by 11βHSD1 oxo-reductase activity and cortisol (but not cortisone) binds to and activates the glucocorticoid receptor. Activated glucocorticoid receptor then binds to the GRE and initiates transcription and translation of β-galactosidase. Enzyme activity can then be assayed with high sensitivity by colourimetric assay.
Cells were routinely cultured in DMEM (Invitrogen, Paisley, Renfrewshire, UK) containing 10% foetal calf serum (LabTech), 1% glutamine (Invitrogen), 1% penicillin & streptomycin (Invitrogen), 0.5 mg/ml G418 (Invitrogen) & 0.5 mg/ml hygromycin (Boehringer). Assay media was phenol red free-DMEM containing 1% glutamine, 1% penicillin & streptomycin.
Compounds (1 mM) to be tested were dissolved in dimethyl sulphoxide (DMSO) and serially diluted into assay media containing […]. […]
A cocktail (25 μl) consisting of 10× Z-buffer (600 mM Na2HPO4, 400 mM NaH2PO4.2H2O, 100 mM KCl, 10 mM MgSO4.7H2O, 500 mM, β-mercaptoethanol, pH 7.0), SDS (0.2%), chlorophenol red-β-D-galactopyranoside (5 mM, Roche Diagnostics) was added per well and plates incubated at 37° C. for 34 hours. β-Galactosidase activity was indicated by a yellow to red colour change (absorbance at 570 nm) measured using a Tecan Spectrafluor Ultra.
The calculation of median inhibitory concentration (IC50) values for the inhibitors was performed using Origin 6.0 (Microcal Software, Northampton Mass. USA). Dose response curves for each inhibitor were plotted as OD units at each inhibitor concentration with relation to a maximum signal (cortisone, no compound) and IC50 values calculated. […]

T1 sequence (P28845 whole entry): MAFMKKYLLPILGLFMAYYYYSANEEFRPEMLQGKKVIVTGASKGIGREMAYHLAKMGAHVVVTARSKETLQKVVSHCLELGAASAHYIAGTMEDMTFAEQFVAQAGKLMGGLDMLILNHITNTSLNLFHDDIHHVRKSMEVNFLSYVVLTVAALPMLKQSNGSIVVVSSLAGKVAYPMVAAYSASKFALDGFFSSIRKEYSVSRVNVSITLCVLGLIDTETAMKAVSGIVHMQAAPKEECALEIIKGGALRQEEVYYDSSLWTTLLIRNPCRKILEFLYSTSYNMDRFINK

IC50 | Compound
10 nM | CC(C)S(=O)(=O)N1CCCC(C(=O)c2ccc(F)cc2)C1 (stereo not drawn) [Example 13]
83 nM | O=C(c1ccc(F)cc1)C1CCCN(C(=O)Cc2ccc(F)cc2)C1 (stereo not drawn) [Example 17]
206 nM | O=C(c1ccc(F)cc1)C1CCCN(C(=O)c2ccc(Cl)s2)C1 (stereo not drawn) [Example 18]
